pKi: −log10 of the molar value. Where a name gives a salt, the structure may show the parent alone.

These results are taken from patent publication US20050059726A1, “Pyrrolidine-2-ones as factor xa inhibitors” (priority 2001, published 2005).

T1 sequence (P00742 235-488 limits assumed): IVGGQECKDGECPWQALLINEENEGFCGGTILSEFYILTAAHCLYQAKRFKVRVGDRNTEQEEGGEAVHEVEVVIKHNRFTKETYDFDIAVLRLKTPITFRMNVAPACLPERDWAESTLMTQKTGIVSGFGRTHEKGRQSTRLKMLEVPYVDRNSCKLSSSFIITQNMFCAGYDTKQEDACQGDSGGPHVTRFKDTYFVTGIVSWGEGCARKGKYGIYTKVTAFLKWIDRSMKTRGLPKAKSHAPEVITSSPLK
T1 sequence (P00742 41-179 partner limits assumed): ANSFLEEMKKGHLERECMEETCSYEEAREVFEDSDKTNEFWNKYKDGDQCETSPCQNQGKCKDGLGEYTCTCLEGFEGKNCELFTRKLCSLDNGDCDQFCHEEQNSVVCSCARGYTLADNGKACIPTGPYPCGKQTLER

For the first assay, the target named is T1, human Factor Xa (Homo sapiens, UniProt P00742). Description: In vitro assay for inhibition of Factor Xa (1), chromogenic assay. Type of assay: biochemical. Particulars: substrate N-α-benzyloxycarbonyl-D-Arg-Gly-Arg-p-nitroanilide 200 μM, Ki calculated from IC50. The procedure:
• 1. Klimkowski, Valentine Joseph; Kyle, Jeffrey Alan; Masters, John Joseph; Wiley, Michael Robert. PCT Int. Appl. (2000), WO 0039092. In Vitro Assay for Inhibition of Factor Xa (1)
Compounds were diluted from a 10 mM stock solution in dimethylsulfoxide at appropriate concentrations. Assay was performed at room temperature using buffer consisting of: 50 mM Tris-HCl, 150 mM NaCl, 5 mM CaCl2, pH 7.4. containing human Factor Xa (final conc. of 0.0015 U,ml^−1). Compound and enzyme were preincubated for 15 min prior to addition of the substrate (final conc. of 200 μM). The reaction was stopped after 30 min with the addition of soybean trypsin inhibitor or H-D-PHE-PRO-ARG-Chloromethylketone. BioTek EL340 or Tecan Spectrafluoro Plus plate readers were used to monitor the absorbance at 405 nm. To obtain IC50 values the data were analysed using ActivityBase® and XLfit®.
Calculation of Ki values:
Ki=IC50/(1+[Substrate]/Km)
The Ki value for the above assay can be obtained by dividing the IC50 value by 1.6.
The term pKi denotes the Ki on a negative log10 scale, so that one unit is a factor of ten. On to `CN(C)c1ccc(N2CC[C@H](NS(=O)(=O)c3ccc4cc(Cl)ccc4c3)C2=O)cc1` [Example 2, 6-Chloro-N-{(3S)-1-[4-(dimethylamino)phenyl]-2-oxopyrrolidin-3-yl}naphthalene-2-sulfonamide], for which the pKi is more than 7.70. Still for that read-out and setting: next, `CNS(=O)(=O)c1ccccc1-c1ccc(N2CC[C@H](NS(=O)(=O)/C=C/c3ccc(Cl)s3)C2=O)c(F)c1` [Example 19, 4′-[(3S)-3-({[(E)-2-(5-Chlorothien-2-yl)ethenyl]sulfonyl}amino)-2-oxopyrrolidin-1-yl]-3′-fluoro-N-methyl-1,1′-biphenyl-2-sulfonamide]: more than 8.00; `CS(=O)(=O)Nc1ccccc1-c1ccc(N2CC[C@H](NS(=O)(=O)/C=C/c3ccc(Cl)s3)C2=O)nc1` [Example 21, (E)-2-(5-Chlorothien-2-yl)-N-[(3S)-1-(5-{2-[(methylsulfonyl)amino]phenyl}pyridin-2-yl)-2-oxopyrrolidin-3-yl]ethenesulfonamide]: more than 7.70.

The target in another assay is T1, human Factor Xa. Description: In vitro assay for inhibition of Factor Xa (2), fluorogenic assay. Type of assay: biochemical. The settings on record: substrate Rhodamine 110, bis-(CBZ-glycylglycyl-L-arginine amide 10 μM), Ki calculated from IC50. The method, boiled down: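 Enzyme (final 0.0003 U/mL) preincubated 15 min with compound at room temperature in 50 mM Tris-HCl, 150 mM NaCl, 5 mM CaCl2, pH 7.4, then rhodamine 110 bis-(CBZ-Gly-Gly-Arg amide) substrate added (final 10 μM).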
In the case of `CC(O)c1ccc(N2CC[C@H](NS(=O)(=O)/C=C/c3ccc(Cl)s3)C2=O)c(F)c1` (stereo partly drawn) [Example 135, (E)-2-(5-Chlorothien-2-yl)-N-{(3S)-1-[2-fluoro-4-(1-hydroxyethyl)phenyl]-2-oxopyrrolidin-3-yl}ethenesulfonamide], the pKi is more than 6.70.

Consider `C/C(=C\S(=O)(=O)N[C@H]1CCN(c2ccc(I)cn2)C1=O)c1ccc(Cl)s1` [Example 136], for which the pKi is more than 8.00.

Regarding `C/C(=C\S(=O)(=O)N[C@H]1CCN(c2ccc(NS(C)(=O)=O)cc2F)C1=O)c1ccc(Cl)s1` [Example 137, (1E)-2-(5-Chlorothien-2-yl)-N-((3S)-1-{2-fluoro-4-[(methylsulfonyl)amino]phenyl}-2-oxopyrrolidin-3-yl)prop-1-ene-1-sulfonamide], the pKi was more than 7.70. As to `CC(=O)c1ccc(N2CC[C@H](NS(=O)(=O)/C=C/c3ccc(Cl)s3)C2=O)cc1` [Example 138, (E)-N-[(3S)-1-(4-Acetylphenyl)-2-oxopyrrolidin-3-yl]-2-(5-chlorothien-2-yl)ethenesulfonamide], the negative logarithm of the Ki (pKi) was more than 6.70.

Take `NC(=O)CN([C@H]1CCN(c2ccc(-c3ccccc3S(N)(=O)=O)cc2F)C1=O)S(=O)(=O)c1cc2ccc(Cl)cc2s1` [Example 140, 2-{(6-Chloro-benzo[b]thiophene-2-sulphonyl)-[(S)-1-(3-fluoro-2′-sulfamoyl-biphenyl-4-yl)-2-oxo-pyrrolidin-3-yl]-amino}-acetamide Formate]: the pKi is more than 8.00. `C/C(=C\S(=O)(=O)N[C@H]1CCN(c2ccc(-n3ccnc3C[N+](C)(C)CC(N)=O)cc2F)C1=O)c1ccc(Cl)s1` [Example 142, 2-Amino-N-[(1-{4-[(3S)-3-({[(1E)-2-(5-chlorothien-2-yl)prop-1-enyl]sulfonyl}amino)-2-oxopyrrolidin-1-yl]-3-fluorophenyl}-1H-imidazol-2-yl)methyl]-N,N-dimethyl-2-oxoethanaminium formate]: the pKi is more than 8.00.

Regarding `C[N+](C)(CC(N)=O)Cc1nccn1-c1ccc(N2CC[C@H](NS(=O)(=O)CCc3ccc(Cl)s3)C2=O)c(F)c1` [Example 143, 2-Amino-N-[(1-{4-[(3S)-3-({[2-(5-chlorothien-2-yl)ethyl]sulfonyl}amino)-2-oxopyrrolidin-1-yl]-3-fluorophenyl}-1H-imidazol-2-yl)methyl]-N,N-dimethyl-2-oxoethanaminium Formate], the pKi was more than 8.00. Same read-out and setting: the same measure for `C[N+](C)(CC(N)=O)Cc1nccn1-c1ccc(N2CC[C@H](NS(=O)(=O)c3cc4ccc(Cl)cc4s3)C2=O)c(F)c1` [Example 144, 2-Amino-N-({1-[4-((3S)-3-{[(6-chloro-1-benzothien-2-yl)sulfonyl]amino}-2-oxopyrrolidin-1-yl)-3-fluorophenyl]-1 H-imidazol-2-yl}methyl)-N,N-dimethyl-2-oxoethanaminium Formate]: more than 8.00.
